For test [1], the system named is Advillin^Cre; Mecp2^f/y mutant mice and control littermates. Nature of the test: Magnitude of startle response to a 125 dB noise after drug injection. Type of test: in vivo, mouse. Particulars: Midazolam 2.5 mg/kg injection, compared to animals treated with vehicle. How it is done: (§1) FIG. 15A is a graph showing the startle response of Advillin^Cre; Mecp2^f/y mutant mice and control littermates following injection of: vehicle (saline), Bumetanide (0.2 mg/kg), Midazolam (2.5 mg/kg) or isoguvacine (1 mg/kg). […] FIG. 15B is a graph showing the response to tactile PPI of Advillin^Cre; Mecp2^f/y mutant mice and control littermates following injection of: vehicle (saline), Bumetanide (0.2 mg/kg), Midazolam (2.5 mg/kg) or isoguvacine (1 mg/kg). […] FIG. 15C is a graph showing the response to air puff alone of Advillin^Cre; Mecp2^f/y mutant mice and control littermates following injection of: vehicle (saline), Bumetanide (0.2 mg/kg), Midazolam (2.5 mg/kg) or isoguvacine (1 mg/kg).
(§2) The response of mice to tactile and acoustic startle stimuli, and the ability of a tactile or acoustic stimulus to inhibit startle to a loud acoustic stimulus was measured using a San Diego Instruments startle reflex system (SR-LAB™ Startle Response System). […] Air puffs were administered to the back of the mouse to assess hairy skin sensitivity. […]
(§3) For acoustic PPI, the prepulse was 20 ms in duration and presented 100 ms before the startle pulse (inter-stimulus interval, ISI). […] Whole body flinch, or startle reflex, was quantitated using an accelerometer sensor measuring the amplitude of movement of the animal, within the cylindrical holder.

The subject of test [2] is Advillin^Cre; Mecp2^f/y mutant mice. The test can be described thus: Tactile PPI assay after drug injection. Type of test: in vivo, mouse. The conditions noted are these: Midazolam 2.5 mg/kg or isoguvacine 1 mg/kg injection. How it is done: as §1, §2, §3
The test system is the same in test [3]. Nature of the test: Response to air puff stimulus alone after drug injection. Type of test: in vivo, mouse. Particulars: Midazolam 2.5 mg/kg or isoguvacine 1 mg/kg injection. Here is the method: as §1
The response of mice to tactile and acoustic startle stimuli, and the ability of a tactile or acoustic stimulus to inhibit startle to a loud acoustic stimulus was measured using a San Diego Instruments startle reflex system (SR-LAB™ Startle Response System). […] Air puffs were administered to the back of the mouse to assess hairy skin sensitivity. […] In addition, this prepulse intensity was chosen because it produced significant inhibition of startle reflex at multiple (ISIs). […]

The test system of test [4] is large diameter DRG neurons cultured from control mice. Nature of the test: Whole cell patch clamp recordings of cultured large diameter DRG neurons. It counts as cell-based, mouse. The conditions noted are these: 10 μM isoguvacine, 5 minutes after application. From the text:
Repeated measures one-way ANOVA, *, p<0.05. […] Student's paired t-test, p<0.05. […] Repeated measures one-way ANOVA, *, p<0.05. […] Student's paired t-test, p<0.05.
These exciting findings prompted us to ask whether peripherally restricted GABAA receptor agonists could also be used to ameliorate tactile hypersensitivity and other behavioral deficits in ASD models. We utilized a peripherally restricted GABAA receptor agonist, isoguvacine, to determine whether augmenting GABAA receptor signaling at DRG cell bodies could reduce excitability of primary somatosensory afferents.

The subject of test [5] is large diameter DRG neurons cultured from Shank3B^+/- or Mecp2^STOP/y mice. Nature of the test: Whole cell patch clamp recordings of cultured large diameter DRG neurons from mutant mice. It counts as cell-based, mouse. The conditions noted are these: 10 μM isoguvacine; for resting membrane potential / rheobase, excitability: neurons from Shank3B^+/- or Mecp2^STOP/y mice. The source says: Repeated measures two-way ANOVA with post-hoc Tukey's test: *, p<0.05. […] Repeated measures two-way ANOVA with post-hoc Tukey's test: *, p<0.05. […] Repeated measures two-way ANOVA with post-hoc Tukey's test: *, p<0.05. […] Repeated measures two-way ANOVA with post-hoc Tukey's test: *, p<0.05.
We next determined whether isoguvacine could improve electrophysiological deficits observed in large diameter peripheral somatosensory neurons cultured from Shank3 and Mecp2 mutant mice.
(In general: In patch-clamp work, channel activity is measured electrically.)

Test [6] relates to Mecp2, Shank3 and Fmr1 mutant mice. Nature of the test: Tactile PPI assay in multiple ASD mouse models. It counts as in vivo. The conditions noted are these: 1 mg/kg, i.p., acute, 30 minutes before test. How it is done:
(§4) Values are expressed as percent of control littermates' performance. Experiments were performed in mutant mice (Advillin^Cre; Mecp2^f/y, Shank3B^+/− or Fmr1^−/y) and control littermates, 30 minutes after an intraperitoneal (i.p.) of either saline (vehicle) or Isoguvacine (1 mg/kg). Two-way ANOVA, with post-hoc Holm-Sidak's test, *, p<0.05, when comparing mutants to control within same treatment; #, p<0.05, when comparing the same genotype across different treatments. FIG. 56B is a graph of response to a light air puff stimulus alone (0.9 PSI, 50 ms). Responses are expressed as a percent of startle response to a 125-B noise. Experiments were performed in mutant mice (Advillin^Cre; Mecp2^f/y, Shank3B^+/− or Fmr1^−/y) and control littermates, 30 minutes after an intraperitoneal (i.p.) of either saline (vehicle) or isoguvacine (1 mg/kg). Two-way ANOVA, with post-hoc Holm-Sidak's test, *, p<0.05, and t, p<0.10, when comparing mutants to control within same treatment; #, p<0.05, when comparing the same genotype across different treatments. FIG. 56C is a graph of magnitude of startle response to a 125-dB noise. […]
(§5) The response of mice to tactile and acoustic startle stimuli, and the ability of a tactile or acoustic stimulus to inhibit startle to a loud acoustic stimulus was measured using a San Diego Instruments startle reflex system (SR-LAB™ Startle Response System). […]

The subject of test [7] is mice including Advillin^Cre; Mecp2^floxed mutant mice. Nature of the test: Open field test after isoguvacine. Particulars: 1 mg/kg, i.p. It counts as in vivo, mouse. How it is done:
as §4
On the first day of behavioral testing, animals were subjected to the open field test. […] A portion of videos were blindly hand-scored to verify accuracy. Distance traveled and time spent away from walls (time in center) were analyzed per 10-minute video.

The next test has as its system control mice. The test can be described thus: Tactile PPI with back hairy skin pretreated with lidocaine. Type of test: in vivo, mouse. Here is the method:
FIG. 1A is an image showing a smooth textured object (left) and a rough textured object (right) used in the textured NORT. FIG. 1B is a schematic outlining the protocol for the three NORT assays. FIG. 1C is a graph showing the discrimination indices for textured NORT. A positive value indicates preference for the novel object, compared to the familiar object. *, p<0.05. FIG. 1D is a graph showing the discrimination indices for 5 minute control NORT. A positive value indicates preference for the novel object, compared to the familiar object. *, p<0.05. FIG. 1E is a graph showing the discrimination indices for 1 hour control NORT. A positive value indicates preference for the novel object, compared to the familiar object. *, p<0.05. FIG. 1F is a schematic showing the tactile PPI assay. […] Responses are expressed as percent of startle response to a 125 dB noise. *, p<0.01. […] Responses are expressed as percent of startle response to a 125 dB noise. *, p<0.05. […]
as §5

“Also recorded” adds a separate entry of the source.

As to `Cc1ncc2n1-c1ccc(Cl)cc1C(c1ccccc1F)=NC2` [Midazolam], the startle amplitude entry in test [1] is “trend toward decreased startle amplitude”. Further, the “responses in the tactile PPI assay” value in test [2] is “trend toward normalized responses”. Further, the “response to an air puff stimulus alone” value in test [3] is “decreased response to an air puff stimulus alone”.
With `O=C(O)C1=CCNCC1` [isoguvacine], the “responses in the tactile PPI assay” value in test [2] is listed as “trend toward normalized responses”. In test [3], the “response to an air puff stimulus alone” value was “decreased response to an air puff stimulus alone”. In test [4], the “minimal current required to produce an action potential (rheobase), excitability” value is “decreases excitability; also recorded: increase in the amount of minimal current required to produce an action potential”. The resting membrane potential entry was “reduces resting membrane potential; also recorded: decrease in resting membrane potential” in test [4], “significant decrease in resting membrane potential” in test [5] and “reduces resting membrane potential” in test [5] (listed as Isoguvacine). Also, the “rheobase compared with neurons cultured from control littermates” value in test [5] (neurons from Shank3B^+/- and Mecp2^STOP/y mice) is “rheobase was no longer different than neurons cultured from control littermates”. Also, the “rheobase, excitability” value in test [5] is reported as “increase in rheobase”; in test [5] (listed as Isoguvacine), “decreases excitability”. The “tactile hypersensitivity, as measured by the tactile PPI assay” value in test [6] is on record as “significantly reduces tactile hypersensitivity”. Also, in test [7], the “time spent in the center of a chamber during the open field test” value is “enhanced the time spent in the center”.
In the case of `CCN(CC)CC(=O)Nc1c(C)cccc1C` [lidocaine], the “tactile PPI” value in the test with control mice is given as “abolished”.

The record behind these values is patent publication US11547706B2, “Methods and compositions for reducing tactile dysfunction and anxiety associated with autism spectrum disorder, Rett syndrome, and Fragile X syndrome” (President and Fellows of Harvard College, priority 2016, dated 2023).
